In patent publication US10479786B2, “Protein kinase inhibitors” (Princeton Drug Discovery Inc, priority 2016, dated 2019):

Key:
ACK = biological target: T1, ACK (Homo sapiens, UniProt Q07912); test: Off-chip Mobility Shift Assay, kinase inhibition; format: biochemical; conditions: at 10 nM; recombinant ACK
T1 construct: purchased Carna Biosciences, Inc

BTK = biological target: T2, BTK (Homo sapiens, UniProt Q06187); test: Off-chip Mobility Shift Assay, kinase inhibition; format: biochemical; conditions: recombinant BTK; for inhibition at 0.001 µM: at 1 nM; for inhibition at 0.01 µM: at 10 nM
T2 construct: purchased Carna Biosciences, Inc
T2 sequence (Q06187 whole entry): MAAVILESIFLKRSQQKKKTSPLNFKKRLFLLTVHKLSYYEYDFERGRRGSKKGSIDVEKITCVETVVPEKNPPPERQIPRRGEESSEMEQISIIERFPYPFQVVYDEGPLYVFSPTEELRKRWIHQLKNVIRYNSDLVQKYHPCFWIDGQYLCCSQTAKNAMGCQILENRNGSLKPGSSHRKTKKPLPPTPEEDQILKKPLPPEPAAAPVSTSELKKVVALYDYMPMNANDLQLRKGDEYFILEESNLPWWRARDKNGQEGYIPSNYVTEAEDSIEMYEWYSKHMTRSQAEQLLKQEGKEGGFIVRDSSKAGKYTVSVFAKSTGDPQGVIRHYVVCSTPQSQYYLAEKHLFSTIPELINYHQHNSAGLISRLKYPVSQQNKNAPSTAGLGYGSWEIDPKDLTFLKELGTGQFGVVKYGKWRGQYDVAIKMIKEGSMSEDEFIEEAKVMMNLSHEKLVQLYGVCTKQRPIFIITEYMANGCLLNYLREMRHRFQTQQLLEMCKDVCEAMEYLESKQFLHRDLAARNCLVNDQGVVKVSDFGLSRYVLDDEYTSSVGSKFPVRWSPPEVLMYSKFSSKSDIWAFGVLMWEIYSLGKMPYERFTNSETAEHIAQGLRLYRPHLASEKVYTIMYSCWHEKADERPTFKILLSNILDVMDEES

ABL = biological target: T3, ABL (Homo sapiens, UniProt P00519); test: Off-chip Mobility Shift Assay, kinase inhibition; format: biochemical; conditions: recombinant ABL; for inhibition at 0.001 µM: at 1 nM; for inhibition at 0.01 µM: at 10 nM
T3 construct: purchased Carna Biosciences, Inc
T3 sequence (P00519 whole entry): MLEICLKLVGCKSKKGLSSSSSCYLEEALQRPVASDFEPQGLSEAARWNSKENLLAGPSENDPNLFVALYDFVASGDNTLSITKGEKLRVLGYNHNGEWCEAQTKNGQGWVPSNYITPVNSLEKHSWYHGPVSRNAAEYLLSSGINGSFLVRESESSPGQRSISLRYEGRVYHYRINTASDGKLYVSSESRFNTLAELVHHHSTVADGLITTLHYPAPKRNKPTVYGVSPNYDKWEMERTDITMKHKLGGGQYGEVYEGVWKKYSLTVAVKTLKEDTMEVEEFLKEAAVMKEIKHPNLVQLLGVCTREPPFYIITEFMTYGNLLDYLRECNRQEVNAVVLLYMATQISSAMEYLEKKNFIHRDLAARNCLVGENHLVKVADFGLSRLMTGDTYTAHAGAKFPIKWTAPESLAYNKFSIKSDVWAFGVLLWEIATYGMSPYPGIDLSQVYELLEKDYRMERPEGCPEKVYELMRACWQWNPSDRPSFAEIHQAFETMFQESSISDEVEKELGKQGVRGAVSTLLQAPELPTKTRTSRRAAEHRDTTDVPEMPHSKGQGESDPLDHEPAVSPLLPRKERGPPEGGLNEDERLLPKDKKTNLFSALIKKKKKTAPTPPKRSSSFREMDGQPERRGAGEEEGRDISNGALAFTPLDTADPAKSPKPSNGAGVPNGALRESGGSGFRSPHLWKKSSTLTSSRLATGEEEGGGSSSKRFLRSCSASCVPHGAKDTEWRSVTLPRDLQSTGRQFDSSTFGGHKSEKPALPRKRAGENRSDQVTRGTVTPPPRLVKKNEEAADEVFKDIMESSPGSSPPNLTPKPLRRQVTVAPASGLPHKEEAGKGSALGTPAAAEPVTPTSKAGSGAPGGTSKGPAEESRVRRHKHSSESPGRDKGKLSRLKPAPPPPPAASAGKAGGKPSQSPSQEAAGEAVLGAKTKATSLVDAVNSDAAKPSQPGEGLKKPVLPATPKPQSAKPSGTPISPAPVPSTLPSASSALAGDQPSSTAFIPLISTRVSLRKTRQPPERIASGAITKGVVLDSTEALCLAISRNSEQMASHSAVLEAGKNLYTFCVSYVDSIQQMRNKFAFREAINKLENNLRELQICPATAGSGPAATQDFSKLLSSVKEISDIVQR

Mino = test: Cell inhibition assay (PrestoBlue, 48 h); format: cell-based; conditions: Homo sapiens, Mino cells, read-out: IC50, inhibition of growth
YES = biological target: T4, YES (Homo sapiens, UniProt P07947); test: Off-chip Mobility Shift Assay, kinase inhibition; format: biochemical; conditions: recombinant YES; for inhibition at 0.001 µM: at 1 nM; for inhibition at 0.01 µM: at 10 nM
T4 construct: purchased Carna Biosciences, Inc

FMS = biological target: T5, FMS (Homo sapiens, UniProt P07333); test: Off-chip Mobility Shift Assay, kinase inhibition; format: biochemical; conditions: recombinant FMS; for inhibition at 0.01 µM: at 10 nM
T5 construct: purchased Carna Biosciences, Inc
T5 sequence (P07333 20-972): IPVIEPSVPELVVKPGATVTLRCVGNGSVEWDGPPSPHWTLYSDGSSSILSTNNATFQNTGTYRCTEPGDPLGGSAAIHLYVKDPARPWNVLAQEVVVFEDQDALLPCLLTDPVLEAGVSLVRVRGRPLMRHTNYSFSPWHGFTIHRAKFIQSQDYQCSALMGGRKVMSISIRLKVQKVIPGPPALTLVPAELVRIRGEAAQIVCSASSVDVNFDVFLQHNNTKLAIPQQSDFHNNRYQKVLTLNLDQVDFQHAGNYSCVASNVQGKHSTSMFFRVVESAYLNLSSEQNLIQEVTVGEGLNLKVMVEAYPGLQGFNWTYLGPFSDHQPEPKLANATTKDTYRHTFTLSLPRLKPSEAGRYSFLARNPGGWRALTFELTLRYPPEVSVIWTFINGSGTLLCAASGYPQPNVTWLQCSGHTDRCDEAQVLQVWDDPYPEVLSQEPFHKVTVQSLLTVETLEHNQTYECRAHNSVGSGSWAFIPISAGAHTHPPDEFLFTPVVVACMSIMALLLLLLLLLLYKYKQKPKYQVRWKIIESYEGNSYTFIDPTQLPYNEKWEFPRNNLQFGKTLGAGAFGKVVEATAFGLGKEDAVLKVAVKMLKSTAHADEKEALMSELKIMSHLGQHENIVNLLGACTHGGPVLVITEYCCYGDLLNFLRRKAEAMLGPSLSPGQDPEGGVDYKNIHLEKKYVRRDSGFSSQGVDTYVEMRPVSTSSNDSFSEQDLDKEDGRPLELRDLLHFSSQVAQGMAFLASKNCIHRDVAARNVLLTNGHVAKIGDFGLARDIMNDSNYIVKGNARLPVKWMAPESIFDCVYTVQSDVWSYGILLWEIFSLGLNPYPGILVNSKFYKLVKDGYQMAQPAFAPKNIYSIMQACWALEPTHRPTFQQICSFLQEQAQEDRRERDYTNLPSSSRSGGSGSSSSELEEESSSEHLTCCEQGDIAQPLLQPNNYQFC

FRK = biological target: T6, FRK (Homo sapiens, UniProt P42685); test: Off-chip Mobility Shift Assay, kinase inhibition; format: biochemical; conditions: recombinant FRK; for inhibition at 0.01 µM: at 10 nM
T6 construct: purchased Carna Biosciences, Inc
T6 sequence (P42685 whole entry): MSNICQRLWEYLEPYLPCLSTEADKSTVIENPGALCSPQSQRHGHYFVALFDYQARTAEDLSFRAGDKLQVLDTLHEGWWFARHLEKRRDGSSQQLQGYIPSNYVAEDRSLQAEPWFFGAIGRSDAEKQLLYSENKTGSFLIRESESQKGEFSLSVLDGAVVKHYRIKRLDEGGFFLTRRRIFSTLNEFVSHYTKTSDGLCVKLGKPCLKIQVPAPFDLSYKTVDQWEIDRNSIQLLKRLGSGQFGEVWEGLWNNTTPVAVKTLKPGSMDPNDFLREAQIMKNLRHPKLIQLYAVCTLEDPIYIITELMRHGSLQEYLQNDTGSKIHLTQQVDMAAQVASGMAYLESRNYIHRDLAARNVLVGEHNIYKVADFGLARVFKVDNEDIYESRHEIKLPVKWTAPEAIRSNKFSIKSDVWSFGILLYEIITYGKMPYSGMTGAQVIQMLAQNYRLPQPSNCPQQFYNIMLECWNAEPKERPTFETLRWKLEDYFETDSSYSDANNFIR

PDGFRβ = biological target: T7, PDGFRβ (Homo sapiens, UniProt P09619); test: Off-chip Mobility Shift Assay, kinase inhibition; format: biochemical; conditions: recombinant PDGFRβ; for inhibition at 0.01 µM: at 10 nM, read-out: inhibition
T7 construct: purchased Carna Biosciences, Inc
T7 sequence (P09619 33-1106): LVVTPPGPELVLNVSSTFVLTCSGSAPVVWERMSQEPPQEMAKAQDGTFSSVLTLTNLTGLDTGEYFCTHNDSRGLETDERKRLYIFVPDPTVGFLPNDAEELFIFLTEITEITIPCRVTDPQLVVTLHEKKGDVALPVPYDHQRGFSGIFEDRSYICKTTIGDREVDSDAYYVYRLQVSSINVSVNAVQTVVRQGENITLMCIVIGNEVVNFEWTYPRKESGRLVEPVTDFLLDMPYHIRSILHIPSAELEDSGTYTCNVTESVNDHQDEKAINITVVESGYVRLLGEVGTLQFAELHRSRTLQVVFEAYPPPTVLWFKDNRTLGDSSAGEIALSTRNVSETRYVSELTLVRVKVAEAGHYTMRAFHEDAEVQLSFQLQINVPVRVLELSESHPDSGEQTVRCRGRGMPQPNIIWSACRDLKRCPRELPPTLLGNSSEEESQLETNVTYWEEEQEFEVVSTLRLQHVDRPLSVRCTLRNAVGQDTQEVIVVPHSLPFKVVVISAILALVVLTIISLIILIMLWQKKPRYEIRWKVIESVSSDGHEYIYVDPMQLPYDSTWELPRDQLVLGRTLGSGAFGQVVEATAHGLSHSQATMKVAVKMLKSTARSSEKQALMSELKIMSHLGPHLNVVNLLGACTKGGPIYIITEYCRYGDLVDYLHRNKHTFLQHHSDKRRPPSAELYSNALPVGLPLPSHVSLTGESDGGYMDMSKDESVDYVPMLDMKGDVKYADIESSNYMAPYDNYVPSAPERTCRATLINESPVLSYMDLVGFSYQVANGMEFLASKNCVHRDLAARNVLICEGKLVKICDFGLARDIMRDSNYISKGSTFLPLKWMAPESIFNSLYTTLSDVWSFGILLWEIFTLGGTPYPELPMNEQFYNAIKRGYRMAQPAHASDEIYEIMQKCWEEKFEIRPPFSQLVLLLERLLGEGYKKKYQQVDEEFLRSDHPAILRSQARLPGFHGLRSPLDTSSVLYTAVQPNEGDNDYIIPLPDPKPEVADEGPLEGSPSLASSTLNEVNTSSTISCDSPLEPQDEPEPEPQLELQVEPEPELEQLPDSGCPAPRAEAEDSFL

ABL(E255K) = biological target: T8, ABL(E255K) (Homo sapiens, UniProt P00519, E255K); test: Off-chip Mobility Shift Assay, kinase inhibition; format: biochemical; conditions: recombinant ABL(E255K); for inhibition at 0.001 µM: at 1 nM; for inhibition at 0.01 µM: at 10 nM
T8 construct: purchased Carna Biosciences, Inc
T8 sequence (P00519 whole entry E255K): as the sequence (P00519 whole entry) above, with E255K counted along it

PIK3CA/PIK3R1 = biological target: T9, PIK3CA/PIK3R1 (Homo sapiens, UniProt P42336); test: Off-chip Mobility Shift Assay, kinase inhibition; format: biochemical; conditions: recombinant PIK3CA/PIK3R1; for inhibition at 0.01 µM: at 10 nM
T9 construct: purchased Carna Biosciences, Inc

SU-DHL-4 = test: Cell inhibition assay (PrestoBlue, 48 h); format: cell-based; conditions: Homo sapiens, SU-DHL-4, 48 h, SU-DHL-4 diffuse large B-cell lymphoma cells, read-out: IC50, inhibition of growth
PDGFRα = biological target: T10, PDGFRα (Homo sapiens, UniProt P16234); test: Off-chip Mobility Shift Assay, kinase inhibition; format: biochemical; conditions: recombinant PDGFRα; for inhibition at 0.01 µM: at 10 nM, read-out: inhibition
T10 construct: purchased Carna Biosciences, Inc

EPHA1 = biological target: T11, EPHA1 (Homo sapiens, UniProt P21709); test: Off-chip Mobility Shift Assay, kinase inhibition; format: biochemical; conditions: recombinant EPHA1; for inhibition at 0.01 µM: at 10 nM
T11 construct: purchased Carna Biosciences, Inc
T11 sequence (P21709 26-976): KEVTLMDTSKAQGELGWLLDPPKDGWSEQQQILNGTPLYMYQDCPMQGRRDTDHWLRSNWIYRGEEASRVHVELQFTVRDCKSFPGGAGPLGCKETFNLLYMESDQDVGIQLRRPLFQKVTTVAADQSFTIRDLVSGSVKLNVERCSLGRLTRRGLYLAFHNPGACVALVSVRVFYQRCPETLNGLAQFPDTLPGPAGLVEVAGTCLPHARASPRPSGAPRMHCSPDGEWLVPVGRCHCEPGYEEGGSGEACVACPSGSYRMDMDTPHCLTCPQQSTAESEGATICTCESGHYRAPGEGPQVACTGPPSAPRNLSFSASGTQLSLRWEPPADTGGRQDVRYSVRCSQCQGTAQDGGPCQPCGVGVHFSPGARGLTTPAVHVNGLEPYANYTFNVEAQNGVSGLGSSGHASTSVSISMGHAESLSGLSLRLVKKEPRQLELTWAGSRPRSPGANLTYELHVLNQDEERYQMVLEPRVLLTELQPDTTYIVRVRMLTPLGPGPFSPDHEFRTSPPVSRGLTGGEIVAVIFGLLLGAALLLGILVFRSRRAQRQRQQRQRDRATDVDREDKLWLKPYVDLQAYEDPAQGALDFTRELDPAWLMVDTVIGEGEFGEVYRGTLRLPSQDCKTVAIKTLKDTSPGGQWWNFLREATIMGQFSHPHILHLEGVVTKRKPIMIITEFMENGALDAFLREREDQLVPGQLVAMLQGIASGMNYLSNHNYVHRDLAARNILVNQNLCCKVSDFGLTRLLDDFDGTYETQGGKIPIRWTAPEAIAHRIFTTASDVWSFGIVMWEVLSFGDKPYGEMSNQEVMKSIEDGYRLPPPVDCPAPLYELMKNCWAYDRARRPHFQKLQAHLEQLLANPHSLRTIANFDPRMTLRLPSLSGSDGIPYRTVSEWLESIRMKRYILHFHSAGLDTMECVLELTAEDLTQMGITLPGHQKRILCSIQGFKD

BMX = biological target: T12, BMX (Homo sapiens, UniProt P51813); test: Off-chip Mobility Shift Assay, kinase inhibition; format: biochemical; conditions: recombinant BMX; for inhibition at 0.001 µM: at 1 nM; for inhibition at 0.01 µM: at 10 nM
T12 construct: purchased Carna Biosciences, Inc
T12 sequence (P51813 1-675): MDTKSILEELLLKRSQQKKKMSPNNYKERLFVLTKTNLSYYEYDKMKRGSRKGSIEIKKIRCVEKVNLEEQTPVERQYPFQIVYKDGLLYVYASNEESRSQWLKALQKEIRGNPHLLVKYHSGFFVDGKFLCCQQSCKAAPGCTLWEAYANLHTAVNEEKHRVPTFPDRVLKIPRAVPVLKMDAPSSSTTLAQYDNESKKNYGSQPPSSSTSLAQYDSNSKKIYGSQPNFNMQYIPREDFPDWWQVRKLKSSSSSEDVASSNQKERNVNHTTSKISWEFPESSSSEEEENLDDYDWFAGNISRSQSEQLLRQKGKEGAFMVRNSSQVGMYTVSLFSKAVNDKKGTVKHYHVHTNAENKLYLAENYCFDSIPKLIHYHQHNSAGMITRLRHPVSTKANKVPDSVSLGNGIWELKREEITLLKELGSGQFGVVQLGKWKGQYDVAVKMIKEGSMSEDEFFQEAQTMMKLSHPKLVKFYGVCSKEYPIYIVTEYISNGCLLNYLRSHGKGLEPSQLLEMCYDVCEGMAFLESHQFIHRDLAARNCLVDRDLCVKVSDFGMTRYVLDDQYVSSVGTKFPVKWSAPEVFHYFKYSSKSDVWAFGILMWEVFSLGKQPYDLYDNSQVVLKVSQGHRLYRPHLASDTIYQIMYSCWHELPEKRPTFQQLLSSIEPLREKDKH

LYNa = biological target: T13, LYNa (Homo sapiens, UniProt P07948); test: Off-chip Mobility Shift Assay, kinase inhibition; format: biochemical; conditions: recombinant LYNa; for inhibition at 0.001 µM: at 1 nM; for inhibition at 0.01 µM: at 10 nM, read-out: inhibition
T13 construct: purchased Carna Biosciences, Inc
T13 sequence (P07948 whole entry): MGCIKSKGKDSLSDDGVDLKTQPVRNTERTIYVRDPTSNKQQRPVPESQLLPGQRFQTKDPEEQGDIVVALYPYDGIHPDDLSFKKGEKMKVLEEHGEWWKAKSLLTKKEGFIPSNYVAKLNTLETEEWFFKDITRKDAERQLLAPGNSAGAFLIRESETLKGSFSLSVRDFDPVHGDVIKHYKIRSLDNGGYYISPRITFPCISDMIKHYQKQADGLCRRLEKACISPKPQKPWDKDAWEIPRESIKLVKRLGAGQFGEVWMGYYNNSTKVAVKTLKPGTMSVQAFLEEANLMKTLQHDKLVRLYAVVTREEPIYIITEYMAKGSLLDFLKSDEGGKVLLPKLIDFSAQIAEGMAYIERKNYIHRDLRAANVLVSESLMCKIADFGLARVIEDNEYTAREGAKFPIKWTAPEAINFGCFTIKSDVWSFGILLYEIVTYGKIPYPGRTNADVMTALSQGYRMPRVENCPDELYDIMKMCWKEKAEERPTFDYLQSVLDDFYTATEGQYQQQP

LCK = biological target: T14, LCK (Homo sapiens, UniProt P06239); test: Off-chip Mobility Shift Assay, kinase inhibition; format: biochemical; conditions: recombinant LCK; for inhibition at 0.001 µM: at 1 nM; for inhibition at 0.01 µM: at 10 nM
T14 construct: purchased Carna Biosciences, Inc

FGR = biological target: T15, FGR (Homo sapiens, UniProt P09769); test: Off-chip Mobility Shift Assay, kinase inhibition; format: biochemical; conditions: recombinant FGR; for inhibition at 0.01 µM: at 10 nM, read-out: inhibition
T15 construct: purchased Carna Biosciences, Inc

Compound	inhibition at 0.01 µM (ACK)	inhibition at 0.001 µM (BTK)	inhibition at 0.01 µM (BTK)	inhibition at 0.001 µM (ABL)	inhibition at 0.01 µM (ABL)	IC50 (Mino)	inhibition at 0.001 µM (YES)	inhibition at 0.01 µM (YES)	inhibition at 0.01 µM (FMS)	inhibition at 0.01 µM (FRK)	inhibition at 0.01 µM (PDGFRβ)	inhibition at 0.001 µM (ABL(E255K))	inhibition at 0.01 µM (ABL(E255K))	inhibition at 0.01 µM (PIK3CA/PIK3R1)	IC50 (SU-DHL-4)	inhibition at 0.01 µM (PDGFRα)	inhibition at 0.01 µM (EPHA1)	inhibition at 0.001 µM (BMX)	inhibition at 0.01 µM (BMX)	inhibition at 0.001 µM (LYNa)	other results
Cc1nc(Nc2ncc(C(=O)Nc3c(C)cccc3Cl)s2)cc(N2CC[C@@H](O)C2)n1 [Compound XI, N-(2-chloro-6-methylphenyl)-2-[[2-methyl-6-((R)-3-hydroxypyrrolidin-1-yl)pyrimidin-4-yl]amino]thiazole-5-carboxamide]	> 50%	> 50%	> 50%	> 50%	> 50%	< 50 nM	> 50%	> 50%	> 50%	> 50%	> 50%	> 50%	> 50%	> 50%	< 20 nM	> 50%	> 50%	> 50%	> 50%	> 50%	inhibition at 0.01 µM (LYNa): > 50%; inhibition at 0.001 µM (LCK): > 50%; inhibition at 0.01 µM (LCK): > 50%; inhibition at 0.01 µM (FGR): > 50%
[2H]c1cc(C)c(NC(=O)c2cnc(Nc3cc(N4CCC(O)CC4)nc(C)n3)s2)c(Cl)c1 [Compound II, N-(2-chloro-4-deuterio-6-methyl-phenyl)-2-[[6-(4-hydroxy-1-piperidyl)-2-methyl-pyrimidin-4-yl]amino]thiazole-5-carboxamide]	> 50%	> 50%	> 50%	> 50%	> 50%	< 50 nM	> 50%	> 50%	> 50%	> 50%	> 50%	> 50%	> 50%	> 50%	< 20 nM	> 50%	> 50%	> 50%	> 50%	> 50%	inhibition at 0.001 µM (FMS; at 1 nM): > 50%; inhibition at 0.001 µM (FRK; at 1 nM): > 50%; inhibition at 0.001 µM (PDGFRβ; at 1 nM): < 50%; inhibition at 0.1 µM (PDGFRβ; at 100 nM): > 50%; inhibition at 0.001 µM (PIK3CA/PIK3R1; at 1 nM): < 50%; inhibition at 0.1 µM (PIK3CA/PIK3R1; at 100 nM): < 50%; inhibition at 0.001 µM (PDGFRα; at 1 nM): < 50%; inhibition at 0.1 µM (PDGFRα; at 100 nM): > 50%; inhibition at 0.001 µM (EPHA1; at 1 nM): > 50%; inhibition at 0.01 µM (LYNa): > 50%; inhibition at 0.001 µM (LCK): > 50%; inhibition at 0.01 µM (LCK): > 50%; inhibition at 0.001 µM (FGR; at 1 nM): > 50%; inhibition at 0.01 µM (FGR): > 50%
